How the values were obtained:
Test in all cases: combination Emax (second highest fraction inhibited in the dose matrix, 72 h); higher = more inhibition; extreme values may be limits of the assay
[1] = system: C32 (Melanoma)
Procedure, shortened: (§1)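 Cell lines grown in DMEM/F12 or RPMI with 10% FBS were plated in 1536-well plates and held 24 hours at 37°C, 5% CO2 before 72 hours of exposure to two-drug dose matrices, with DMSO typically at 0.2%. CellTiter-Glo 2.0 luminescence gave viability, which was converted to inhibition. Vehicle wells were set to 0 and blank wells to 1. Combination Emax is the second-highest inhibition in the matrix, and Bliss excess is the observed combination effect minus the expected EA + EB − EA·EB, where EA and EB are the single-agent effects.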

[2] = system: RPMI-8402 (T-Lymphoblastic Leukemia)
Procedure, shortened: as §1

[3] = system: NCI-H1435 (Non-Small Cell Lung Carcinoma)
Procedure, shortened: as §1

[4] = system: MRK-nu-1 (Breast Carcinoma)
Procedure, shortened: as §1

[5] = system: NCI-H1648 (Lung Adenocarcinoma)
Procedure, shortened: as §1

[6] = system: SK-MEL-24 (Melanoma)
Procedure, shortened: as §1

[7] = system: CAL-85-1 (Breast Carcinoma)
Procedure, shortened: as §1

[8] = system: SW1463 (Colorectal Carcinoma)
Procedure, shortened: as §1

[9] = system: A375 (Melanoma)
Procedure, shortened: as §1

[10] = system: COR-L105 (Lung Adenocarcinoma)
Procedure, shortened: as §1

[11] = system: MG-63 (Osteosarcoma)
Procedure, shortened: as §1

[12] = system: SBC-3 (Small Cell Lung Carcinoma)
Procedure, shortened: as §1

[13] = system: L-363 (Plasma Cell Myeloma)
Procedure, shortened: as §1

[14] = system: GCIY (Gastric Carcinoma)
Procedure, shortened: as §1

[15] = system: MDA-MB-175-VII (Breast Carcinoma)
Procedure, shortened: as §1

[16] = system: BC-1 (B-Cell Non-Hodgkin's Lymphoma)
Procedure, shortened: as §1

[17] = system: OVKATE (Ovarian Carcinoma)
Procedure, shortened: as §1

[18] = system: NCI-H2009 (Lung Adenocarcinoma)
Procedure, shortened: as §1

[19] = system: NCI-H2452 (Mesothelioma)
Procedure, shortened: as §1

[20] = system: KNS-62 (Squamous Cell Lung Carcinoma)
Procedure, shortened: as §1

SMILES | combination Emax [1] | combination Emax [2] | combination Emax [3] | combination Emax [4] | combination Emax [5] | combination Emax [6] | combination Emax [7] | combination Emax [8] | combination Emax [9] | combination Emax [10] | combination Emax [11] | combination Emax [12] | combination Emax [13] | combination Emax [14] | combination Emax [15] | combination Emax [16] | combination Emax [17] | combination Emax [18] | combination Emax [19] | combination Emax [20]
C=CCn1c(=O)c2cnc(Nc3ccc(N4CCN(C)CC4)cc3)nc2n1-c1cccc(C(C)(C)O)n1 [AZD1775] + C1CN(CCC1(C(=O)N[C@@H](CCO)C2=CC=C(C=C2)Cl)N)C3=NC=NC4=C3C=CN4 [Capivasertib] (first compound max 3 µM, partner max 3 µM) | 0.52 | 1 | 0.442 | 0.721 | 0.821 | 0.503 | 0.682 | 0.47 | 0.813 | 0.584 | 0.668 | 0.881 | 0.939 | 0.668 | 0.506 | 0.97 | 0.322 | 0.883 | 0.816 | 0.719
CN(CCO)CC[C@H](CSc1ccccc1)Nc1ccc(S(=O)(=O)NC(=O)c2ccc(N3CCC([C@@H](O)c4ccccc4-c4ccc(Cl)cc4)CC3)cc2)cc1S(=O)(=O)C(F)(F)F [AZD4320] + C1CN(CCC1(C(=O)N[C@@H](CCO)C2=CC=C(C=C2)Cl)N)C3=NC=NC4=C3C=CN4 [Capivasertib] (first compound max 1 µM, 7x7, partner max 3 µM) | 0.257 | 0.961 | 0.876 | 0.3 | 0.735 | 0.452 | 0.264 | 0.271 | 0.0874 | 0.411 | 0.271 | 0.246 | 0.376 | 0.576 | 0.799 | 0.35 | 0.24 | 0.0559 | 0.202 | 0.232
CN(CCO)CC[C@H](CSc1ccccc1)Nc1ccc(S(=O)(=O)NC(=O)c2ccc(N3CCC([C@@H](O)c4ccccc4-c4ccc(Cl)cc4)CC3)cc2)cc1S(=O)(=O)C(F)(F)F [AZD4320] + CC(=O)O[C@H]1C(=O)[C@@]2(C)[C@H]([C@H](OC(=O)c3ccccc3)[C@]3(O)C[C@H](OC(=O)[C@H](O)[C@@H](NC(=O)c4ccccc4)c4ccccc4)C(C)=C1C3(C)C)[C@]1(OC(C)=O)CO[C@@H]1C[C@@H]2O [Paclitaxel] (first compound max 1 µM, 7x7, partner max 3 µM) | 0.864 | 1 | 0.929 | 1 | 0.936 | 0.888 | 0.884 | 0.767 | 0.992 | 0.695 | 1 | 1 | 1 | 0.952 | 0.766 | 1 | 0.629 | 0.933 | 0.983 | 0.957
CN(CCO)CC[C@H](CSc1ccccc1)Nc1ccc(S(=O)(=O)NC(=O)c2ccc(N3CCC([C@@H](O)c4ccccc4-c4ccc(Cl)cc4)CC3)cc2)cc1S(=O)(=O)C(F)(F)F [AZD4320] + CCN(CCO)CCCOc1ccc2c(Nc3cc(CC(=O)Nc4cccc(F)c4)[nH]n3)ncnc2c1 [AZD2811] (first compound max 1 µM, 7x7, partner max 1 µM) | 0.643 | 0.999 | 0.699 | 0.863 | 0.571 | 0.226 | 0.397 | 0.204 | 0.506 | 0.215 | 0.86 | 0.523 | 0.135 | 0.554 | 0.413 | 0.662 | 0.347 | 0.224 | 0.364 | 0.207
CN(CCO)CC[C@H](CSc1ccccc1)Nc1ccc(S(=O)(=O)NC(=O)c2ccc(N3CCC([C@@H](O)c4ccccc4-c4ccc(Cl)cc4)CC3)cc2)cc1S(=O)(=O)C(F)(F)F [AZD4320] + C[C@@H]1COCCN1C2=NC(=NC(=C2)C3(CC3)[S@](=N)(=O)C)C4=C5C=CNC5=NC=C4 [AZD6738] (first compound max 1 µM, 7x7, partner max 10 µM) | 0.787 | 1 | 0.852 | 0.819 | 0.872 | 0.556 | 0.633 | 0.566 | 0.789 | 0.54 | 0.525 | 0.925 | 0.853 | 0.918 | 0.474 | 0.901 | 0.621 | 0.543 | 0.704 | 0.581
CN(CCO)CC[C@H](CSc1ccccc1)Nc1ccc(S(=O)(=O)NC(=O)c2ccc(N3CCC([C@@H](O)c4ccccc4-c4ccc(Cl)cc4)CC3)cc2)cc1S(=O)(=O)C(F)(F)F [AZD4320] + C[C@@H](Nc1cc(F)cc(F)c1)c1cc(C(=O)N(C)C)cc2c(=O)cc(N3CCOCC3)oc12 [AZD8186] (first compound max 1 µM, 7x7, partner max 3 µM) | 0.681 | 0.994 | 0.966 | 0.589 | 0.812 | 0.772 | 0.668 | 0.27 | 0.519 | 0.387 | 0.375 | 0.979 | 0.249 | 0.719 | 0.453 | 0.461 | 0.438 | 0.553 | 0.364 | 0.382
CN(CCO)CC[C@H](CSc1ccccc1)Nc1ccc(S(=O)(=O)NC(=O)c2ccc(N3CCC([C@@H](O)c4ccccc4-c4ccc(Cl)cc4)CC3)cc2)cc1S(=O)(=O)C(F)(F)F [AZD4320] + Cc1cc2ncnn2cc1Nc1ncc2c(n1)n(C1CCOCC1)c(=O)n2C [AZD7648] (first compound max 1 µM, 7x7, partner max 10 µM) | 0.211 | 0.929 | 0.752 | 0.697 | 0.694 | 0.252 | 0.337 | 0.185 | 0.134 | 0.253 | 0.179 | 0.276 | 0.211 | 0.609 | 0.274 | 0.509 | 0.303 | 0.0699 | 0.386 | 0.108
CN(CCO)CC[C@H](CSc1ccccc1)Nc1ccc(S(=O)(=O)NC(=O)c2ccc(N3CCC([C@@H](O)c4ccccc4-c4ccc(Cl)cc4)CC3)cc2)cc1S(=O)(=O)C(F)(F)F [AZD4320] + Nc1ccn([C@@H]2O[C@H](CO)[C@@H](O)C2(F)F)c(=O)n1 [Gemcitabine] (first compound max 1 µM, 7x7, partner max 0.3 µM) | 0.805 | 1 | 0.823 | 0.892 | 0.49 | 0.901 | 0.702 | 0.455 | 0.996 | 0.514 | 0.973 | 1 | 0.458 | 0.782 | 0.824 | 0.974 | 0.246 | 0.505 | 0.355 | 0.595
Cc1cc2ncnn2cc1Nc1ncc2c(n1)n(C1CCOCC1)c(=O)n2C [AZD7648] + C=CCn1c(=O)c2cnc(Nc3ccc(N4CCN(C)CC4)cc3)nc2n1-c1cccc(C(C)(C)O)n1 [AZD1775] (first compound max 10 µM, partner max 1 µM) | 0.434 | 1 | 0.355 | 0.596 | 0.774 | 0.495 | 0.452 | 0.411 | 0.592 | 0.492 | 0.466 | 0.576 | 0.979 | 0.49 | 0.38 | 0.997 | 0.422 | 0.566 | 0.663 | 0.314
Cc1cc2ncnn2cc1Nc1ncc2c(n1)n(C1CCOCC1)c(=O)n2C [AZD7648] + CCN(CCO)CCCOc1ccc2c(Nc3cc(CC(=O)Nc4cccc(F)c4)[nH]n3)ncnc2c1 [AZD2811] (first compound max 10 µM, 7x7, partner max 1 µM) | 0.279 | 0.886 | 0.288 | 0.824 | 0.547 | 0.373 | 0.31 | 0.27 | 0.492 | 0.31 | 0.39 | 0.564 | 0.413 | 0.49 | 0.323 | 0.871 | 0.27 | 0.335 | 0.497 | 0.326
Cc1cc2ncnn2cc1Nc1ncc2c(n1)n(C1CCOCC1)c(=O)n2C [AZD7648] + CN(C)CCCOc1ccc(-c2ccc3ncc4c(c3c2)n(C2CCOCC2)c(=O)n4C)cn1 [AZD0156] (first compound max 10 µM, 7x7, partner max 1 µM) | 0.195 | 0.382 | 0.226 | 0.515 | 0.508 | 0.28 | 0.371 | 0.159 | 0.269 | 0.339 | 0.331 | 0.482 | 0.393 | 0.437 | 0.288 | 0.634 | 0.35 | 0.14 | 0.42 | 0.235
C[C@@H](c1ccc2nccn2c1)n1nnc2ncc(-c3cnn(C)c3)nc21 [Savolitinib] + CN(CC[C@H](CSC1=CC=CC=C1)NC2=C(C=C(C=C2)S(=O)(=O)NC(=O)C3=CC=C(C=C3)N4CCC(CC4)[C@H](C5=CC=CC=C5C6=CC=C(C=C6)Cl)O)S(=O)(=O)C(F)(F)F)CCO [AZD4320] (first compound max 1 µM, 7x7, partner max 1 µM) | 0.377 | – | – | – | – | – | – | – | 0.202 | – | – | – | – | – | – | – | – | – | – | –

— the supplement of paper PMC11061612
